According to a melting point compilation (Tetko et al.; mined from patent text by program, amines drawn as free bases though some values may be those of a salt):

Point of comparison: `Cc1nc2c(C(F)(F)F)cccc2c(O)c1C(=O)O`, melting point 260 °C. Against it:
- COc1cccc(N(C(=O)c2ccc(-c3cccc(C)c3)s2)C2CC2)c1 — lower, 68 °C
- CCOC(=O)C1=C(C(F)(F)F)Nc2n[nH]cc2C1c1ccccc1 (configuration not stated) — lower, 110 to 115 °C
- CCCCCc1ncc(C(=O)OCC)c(O)n1 — lower, 127 to 129 °C
- Clc1ccc(C23CCN(CC2)C3)cn1 — lower, 70 to 72 °C
- CC(=O)N(C)Cc1ccc(C(=O)Cn2cnc3cc(-c4ccc(Cl)cc4)sc3c2=O)cc1 — lower, 250 to 251 °C
- O=[N+]([O-])c1ccc(CSC(=S)N2Cc3[nH]c4ccccc4c3CC2CO)cc1 (configuration not stated) — lower, 193 to 194 °C
- CC12CCC3C(CC=C4CC(O[Si](C)(C)C)CCC43C)C1CCC2=O (configuration not stated) — lower, 173 to 174 °C
- COc1ccc(C(=O)N2CCc3cc(O)ccc3C2)cc1OC — lower, 58 to 77 °C
- CC(C)C1=NC(NC(=O)CCc2ccc(Cl)cc2Cl)C(=O)N(C)c2ccccc21 (configuration not stated) — lower, 173 to 174 °C
- O=S(=O)(c1nc[nH]n1)C(F)(F)Br — lower, 176 to 177 °C
- COC1C2=C3C(=CN1OC)OCCC3CCC2 (configuration not stated) — lower, 235 to 238 °C
- COC(=O)Cc1cc(N=O)c2[nH]ccc2c1 — lower, 110 to 111 °C
- COc1cccc(C=C2N=C(c3ccccc3)OC2=O)c1 — lower, 100 to 102 °C
- COc1cc(C(=O)NS(=O)(=O)c2ccccc2C)ccc1Cc1cccc2ccc(CCCCC(=O)N(C)C)cc12 — lower, 88 to 93 °C
- CC(C)c1nc(COC(N)=O)n(Cc2cnc3ccccc3c2)c1Sc1cc(Cl)cc(Cl)c1 — lower, 214 to 216 °C
- CC(=O)Nc1ccc(S(=O)(=O)N2CCN(c3c(F)cc4c(=O)c(C(=O)O)cn(CC(C)C)c4c3F)CC2)cc1 — lower, 181 to 183 °C
- Cn1c(=O)c2c(ncn2CN2CCCC2)n(C)c1=O — lower, 105 to 108 °C
- CCSC(=O)Cc1cc(Oc2ccc(C(F)(F)F)cc2Cl)ccc1[N+](=O)[O-] — lower, 82.5 to 84.2 °C
- CCOC(=O)C(=O)CC(=O)c1cn(Cc2ccc(Cl)cc2)c2ccccc2c1=O — lower, 174 to 176 °C
- Cc1nc2ccc(S(=O)(=O)c3cccc4cnccc34)cc2nc1C — lower, 198 to 200 °C
- Clc1nn2nnnc2c2c1CCCC2 — lower, 109 to 110 °C
- O=C(O)c1cc(Cl)c(O)c(O)c1Cl — lower, 230 to 231 °C
- O=C1CCC(N2Cc3c(OCc4ccc(C(=O)NCCN5CCCCC5)cc4)cccc3C2=O)C(=O)N1 (configuration not stated) — lower, 220 to 222 °C
- COC12CC(CO)CN(C)C1CC1CNc3cccc2c31 (configuration not stated) — lower, 134 to 138 °C
- Nc1c([N+](=O)[O-])cc(Br)c2c1CN(CCc1ccccc1)CC2 — lower, 120 to 122 °C
- Nc1ccc2c(c1)C(=O)CC1(CCN(CCc3ccc4nonc4c3)CC1)O2 — lower, 191 to 193 °C
- CC(C)(C)N1C(=O)C(=O)N(c2ccc(C#N)cc2)C1=S — lower, 200 to 201 °C
- COc1cccc(C(=O)Nc2ccc(N3CCOCC3)cc2C(C)=O)c1OC — lower, 146 to 148 °C
- Cc1cc2c(c(C)c1S(=O)(=O)C[N+](=O)[O-])CCCC(C)(C)O2 — lower, 100 to 101 °C
- O=C1c2c(Cl)c(Cl)c(Cl)c(Cl)c2C(=O)N1c1ccccc1 — lower, 251 to 253 °C
- N#Cc1ccc(NC2CCN(Cc3cc(F)cc(C(F)(F)F)c3)CC2)nn1 — lower, 151 °C
- CCOC(=O)C1=C(C)NC(C)=C(C(=O)OCC)C1c1ccc(OC(C)(C)C(=O)OCC)cc1 — lower, 215 °C
- Cc1c(N2CCC(C(N)c3ccccn3)C2)c(F)c(N)c2c(=O)c(C(=O)O)cn(C3CC3F)c12 (configuration not stated) — lower, 127 to 129 °C
- CCOc1nn(-c2ccc(C(F)(F)F)cn2)cc1CCCOc1cccc(CC(=O)O)c1 — lower, 134 to 135 °C
- O=c1cc(-c2ccc(F)cc2)c2c([nH]1)C1CCC(C2)C1 (configuration not stated) — higher, > 300 °C
- O=S(=O)(c1ccccc1)n1c2cc(O)c(O)cc2c2ccc(O)c(O)c21 — lower, 176 to 178 °C
- CC1(C)COC(c2cc(F)c(F)cc2F)=N1 — lower, 53 to 54 °C
- N#CCc1cc2c(-c3ccccc3)c(CC(=O)Nc3ccc(Cl)cc3C(F)(F)F)c(=O)oc2cc1Cl — lower, 247 to 248 °C
- CC(C)c1ccccc1-n1c(=O)[nH]c2c(C(N)=O)nc(-c3ccc(-n4ccnc4)cc3)nc21 — lower, 232 °C
- COc1ccc(Cn2cnc3c(=O)[nH]c(N)nc32)cc1 — higher, > 300 °C
- Cc1ccc(C)c(OCCCC(C)(C)C(=O)Nc2c(F)cc(F)cc2F)c1 — lower, 82 to 83 °C
- CCOC(=O)c1c(N)[nH]c2cc(OC)c(OC)cc12 — lower, 164 to 166 °C
- OC(CN1CCNCC1)Cn1c2ccccc2c2cc(-c3ccccc3)ccc21 (configuration not stated) — lower, 120 °C
- CNC(=O)OCc1c(COC(=O)NC)c(-c2ccc(OC)cc2)n2c1Cc1cc(OC)ccc1-2 — lower, 110 to 112 °C
- CCOCc1nc2c(N)nc3cccnc3c2n1CC(C)(C)OCCS(C)(=O)=O — lower, 189 to 191 °C
- CCOC(=O)c1csc(-n2ccnc2)n1 — lower, 107 to 109 °C
- COc1ccc(F)cc1C(C)(C)CC(O)(Cn1ccc(=O)c2ccccc21)C(F)(F)F (configuration not stated) — lower, 170 to 172 °C
- C/C(=C\C=C(c1ccccc1)c1ccccc1)C(=O)O — lower, 184 to 186 °C
- COc1cc2c(cc1Br)CC=C2CCNC(C)=O — lower, 146 to 148 °C
- N#Cc1ccc(Oc2ccccc2)cc1Oc1ccccc1 — lower, 85 to 86 °C
- C=CCOc1ncnc2nc[nH]c12 — lower, 199 to 200 °C
- CCC[C@H]1C=C(C(=O)OCC)OC(=O)[C@H]1Cc1ccccc1 — lower, 77 to 81 °C
- O=C(O)c1ccc(-c2ccc3cc(CCCO)c(C45CC6CC(CC(C6)C4)C5)cc3c2)cc1 — higher, 268 to 269 °C
- O=c1oc(-c2ccc(OCCCc3ccccc3)cc2)cc(O)c1SCCc1ccccc1 — lower, 139 to 142 °C
- c1ccc(Cn2ccc(CN3CCC(c4ccccc4)(c4ccccc4)CC3)n2)cc1 — lower, 167 to 168 °C
- COC(=O)CCc1ccc(N2CCN(c3ccc(CN)cc3C)C2=O)cc1 — higher, > 275 °C
- OC(CON=C1CCCc2sccc21)CN1CCCC1 (configuration not stated) — lower, 136 °C
- c1ccc(CN2CCC3(C2)OC(c2ccccc2)c2ccccc23)cc1 (configuration not stated) — lower, 85 to 87 °C
- CN1CCC(=O)C(C(c2ccc(F)cc2)c2ccc(F)cc2)C1 (configuration not stated) — lower, 127 to 129 °C
- CC(=O)C(=Cc1ccccc1)c1ccncc1 — lower, 101 to 103 °C
- Clc1ccc(-c2nnco2)cc1 — lower, 129 °C
- COc1ccc(Cn2c(=O)oc(=O)c3cccnc32)cc1 — lower, 160 °C
- Nc1nc2[nH]c(CCC#Cc3ccsc3C(=O)N[C@@H](CCC(=O)O)C(=O)O)cc2c(=O)[nH]1 — lower, 177 to 178 °C
- N#Cc1cc2ccc(O)cc2s1 — lower, 195 to 198 °C
- COCN1C(=O)COc2ccc([N+](=O)[O-])cc21 — lower, 120 to 122 °C
- O=C(O)CCc1cc2c(c(Br)c1Br)OCC2 — lower, 224 to 226 °C
- O=C(CN1CCC(Cc2ccccc2)CC1)Nc1ccc2c(c1)CC(=O)N2 — lower, 166 to 170 °C
- CCN1C(=O)c2cccnc2Nc2cccc(C)c21 — lower, 186 to 188 °C
- CC1(C)CCC(C)(C)c2cc(C(O)C3CCCCC3C(=O)O)ccc21 (configuration not stated) — lower, 186 °C
- Cc1c(-c2ccccc2)nn(N)c1OCCN1CCOCC1 — lower, 96 °C
- CC(C)(C)C(=O)Nc1onc2c1CCC2 — lower, 113 °C
- CCC(CC)Nc1n[nH]c(=O)c2c1ccn2-c1c(C)cc(C)cc1C — lower, 183 to 185 °C
- Cc1nc(N2CCN(Cc3ccccc3)C2=O)sc1C(=O)NCc1ccc(F)cc1 — lower, 147 to 148 °C
- COc1cc(-c2nn(C)c(C(F)(F)F)c2Cl)c(F)cc1[N+](=O)[O-] — lower, 115 to 116 °C
- CC(C)(CNC(=O)CSCC(=O)O)SN=O — lower, 47 to 51 °C
- O=C(SC[C@H](SC(=O)c1ccccc1)C(=O)N[C@@H](CO)C(=O)O)c1ccccc1 — lower, 147 to 150 °C
- c1ccc2c3c([nH]c2c1)C(c1ccc2c(c1)CCO2)NCC3 (configuration not stated) — lower, 98 to 99 °C
- CC(C)NC(=O)CC(O)(Cn1cncn1)c1ccc(Cl)cc1Cl (configuration not stated) — lower, 105 to 107 °C
- CCOC(=O)CNc1ncccc1NC(=O)c1cccc(Cl)c1 — lower, 143 to 144 °C
- CSCCn1nc(-c2cc(C(C)(C)C)c(O)c(C(C)(C)C)c2)c2cccnc21 — lower, 104 to 106 °C
- OCCOC12CC(CO)CNC1Cc1c[nH]c3cccc2c13 (configuration not stated) — lower, 198 to 205 °C
- O=C(COc1ccc(-c2ccc(F)cc2)cc1)Nc1cscc1C(=O)O — lower, 244 to 251 °C
- CC(C)(C)[Si](C)(C)Oc1ccccc1-c1cc(-c2ccc([N+](=O)[O-])cc2)c(C#N)c(N)n1 — lower, 168 to 169 °C
- COc1ccc(-c2nc(C(=O)OC(C)(C)C)c(-c3ccncc3)[nH]2)cc1 — lower, 211 to 212 °C
- CCOCc1nc2c(N)nc3ccccc3c2n1CCCC(=O)N1CCOCC1 — lower, 201 to 203 °C
- CCCOc1cc(C(=O)O)cc(N)c1C(=O)c1ccccc1 — lower, 220 to 222 °C
- O=c1c(-c2cc[nH]n2)coc2ccccc12 — lower, 141 to 142 °C
- C[C@@](N)(Cc1ccc(-c2cncnc2)cc1)C(=O)Nc1cc(Cl)cc(Cl)c1 — lower, 124 to 126 °C
- CC(C#Cc1cccc(C2=NOC(c3ccc(F)cc3)C2)c1)N(O)C(N)=O (configuration not stated) — lower, 132 to 133 °C
- COC(=S)NC[C@H]1CN(c2ccc(-c3nc(Cn4cccn4)cs3)c(F)c2)C(=O)O1 — lower, 157 to 158 °C
- CNn1c(C)nn(C(=O)NC(C)(C)CCl)c1=O — lower, 93 °C
- CCCCc1ccc(-c2ccc(CCc3cc(F)cc(F)c3)cc2)cc1 — lower, 59 °C
- O=C1NCN(c2ccc(F)cc2)C12CCN(CCNC(c1ccc(F)cc1)c1ccc(F)cc1)CC2 — lower, 193 °C
- CCOC(=O)c1ccc(NC(=O)N2CCc3cc(SC)c(C(F)(F)F)cc32)cc1 — not separable, > 200 °C
- CC(C)(C)c1ccc2oc(C(O)COc3ccc(C(=O)O)cc3)cc2c1 (configuration not stated) — lower, 175 to 177 °C
- COC(=O)NN=C1CCCCCC1 — lower, 75 °C
- CC(C)(C)C1=NN(c2ccc(C(=O)O)cc2)C(c2cccc([N+](=O)[O-])c2)C1 (configuration not stated) — lower, 235 °C
- COC(=O)CCC(C)C(=O)N[C@@H](C)C(=O)OCc1ccccc1 (some centres not stated) — lower, 97 to 99 °C
- Cc1cccc(Cl)c1NC(=O)/C=C1\SCC(=O)N1c1ccccc1 — lower, 213 to 214 °C
- CC(C)(C)OC(=O)[C@@H]1CCCN1C(=O)CCS — lower, 57 to 58 °C
- COc1csc2ccc(C(=O)O)c(Cl)c12 — lower, 185 to 192 °C
